The values that follow come from patent publication US6984641B2, “Carboline derivatives as PDE5 inhibitors” (Lilly Icos LLC., priority 2001, dated 2006).

In one assay the target is human recombinant PDE5 (Homo sapiens, UniProt O76074). Description: Inhibitory effect on cGMP-PDE (one-step assay, 8-[H3]-cGMP), human recombinant PDE5. Type of assay: biochemical. Here is the method:
The compounds of the present invention were tested for an ability to inhibit PDE5. The ability of a compound to inhibit PDE5 activity is related to the IC50 yalue for the compound, i.e., the concentration of inhibitor required for 50% inhibition of enzyme activity. The IC50 value for compounds of the present invention were determined using recombinant human PDE5. […]
Cell pellets (29 g) were thawed on ice with an equal volume of Lysis Buffer (25 mM Tris HCl, pH 8, 5 mM MgCl2, 0.25 mM DTT, 1 mM benzamidine, and 10 μM ZnSO4). Cells were lysed in a Microfluidizer® (Microfluidics Corp.) using nitrogen at 20,000 psi. The lysate was centrifuged and filtered through 0.45 μm disposable filters. The filtrate was applied to a 150 mL column of Q SEPHAROSE® Fast-Flow (Pharmacia). The column was washed with 1.5 volumes of Buffer A (20 mM Bis-Tris Propane, pH 6.8, 1 mM MgCl2, 0.25 mM DTT, 10 μM ZnSO4) and eluted with a step gradient of 125 mM NaCl in Buffer A followed by a linear gradient of 125–1000 mM NaCl in Buffer A. Active fractions from the linear gradient were applied to a 180 mL hydroxyapatite column in Buffer B (20 mM Bis-Tris Propane (pH 6.8), 1 mM MgCl2, 0.25 mM DTT, 10 μM ZnSO4, and 250 mM KCl). After loading, the column was washed with 2 volumes of Buffer B and eluted with a linear gradient of 0–125 mM potassium phosphate in Buffer B. Active fractions were pooled, precipitated with 60% ammonium sulfate, and resuspended in Buffer C (20 mM Bis-Tris Propane, pH 6.8, 125 mM NaCl, 0.5 mM DTT, and 10 μM ZnSO4). The pool was applied to a 140 mL column of SEPHA-CRYL® S-300 HR and eluted with Buffer C. Active fractions were diluted to 50% glycerol and stored at −20° C.
(§1) CGMP-PDE activity of compounds of the present invention was measured using a one-step assay adapted from Wells et al., Biochim. Biophys. Acta, 384, 430 (1975). The reaction medium contained 50 mM Tris-HCl, pH 7.5, 5 mM magnesium acetate, 250 μg/ml 5′-Nucleotidase, 1 mM EGTA, and 0.15 μM 8-[H^3]-cGMP. Unless otherwise indicated, the enzyme used was a human recombinant PDE5 (ICOS Corp., Bothell, Wash.).
(§2) Compounds of the invention were dissolved in DMSO finally present at 2% in the assay.

A further assay deals with T1, PDE5 (bovine aorta) (Bos taurus, UniProt Q28156).
T1 construct: from tissue; host or cells: bovine aorta
Put plainly: Inhibitory effect on cGMP-PDE (one-step assay), enzyme from bovine aorta. The following applies: vs. bovine aorta (footnote 1). It counts as biochemical. Here is the method: as §1, §2

pIC50: −log10 of the molar value.

By pIC50 is commonly meant −log10 of the IC50, conventionally taken in molar units. Turning to `O=C1COC[C@@H]2Cc3c([nH]c4ccccc34)[C@H](c3ccc4c(c3)OCO4)N12` (racemic) [Example 3, (+−,cis)-10-Benzo[1,3]dioxol-5-yl-5a,6,10,11-tetrahydro-5H-7-oxa-9a,11-diazabenzo[b]-fluoren-9-one], on human recombinant PDE5, the negative-log IC50 (pIC50) was 7.15.
Same read-out and setting: as for `COc1ccc([C@H]2c3[nH]c4ccccc4c3C[C@H]3COCC(=O)N32)cc1` (racemic) [Example 4, (+−,cis)-10-(4-Methoxyphenyl)-5a,6,10,11-tetrahydro-5H-7-oxa-9a,11-diazabenzo[b]fluoren-9-one], the figure is 6.52; as for `O=C1CCC(=O)N2[C@H](c3ccc4c(c3)OCO4)c3[nH]c4ccccc4c3C[C@@H]12` (racemic) [Example 6, (+−,trans)-6-Benzo[1,3]dioxol-5-yl-5,6,9,10,11a,12-hexahydroindolo[3,2-b]quinolizine-8,11-dione], 6.26; as for `CN1CN2[C@H](c3ccc4c(c3)OCO4)c3[nH]c4ccccc4c3C[C@@H]2C(=O)N1C` [Example 1, (5aR,10R)-10-Benzo[1,3]dioxol-5-yl-7,8-dimethyl-5,5a,8,9,10,11-hexahydro-7H-7,8,9a,11-tetraazabenzo[b]floren-6-one], 7.03.
At PDE5 (bovine aorta), `COc1ccc(C2c3[nH]c4ccccc4c3CC3C(=O)N(Cc4ccccc4)C(=O)CN32)cc1` (stereo not drawn) [Example 2, 2-Benzyl-6-(4-methoxyphenyl)-6,7,12,12a-tetrahydro-pyrazino[1′,2′:1,6]pyrido[3,4-b]indole-1,3-dione] gave a pIC50 of 6.47.
As to `COC(=O)C1CC(=O)N2[C@H](c3ccc4c(c3)OCO4)c3[nH]c4ccccc4c3C[C@@H]2C1O` (stereo partly drawn) [Example 5, (+−,cis)-6-Benzo[1,3]dioxol-5-yl-11-hydroxy-8-oxa-5,6,8,9,11a,12-hexahydroindolo[3,2-b]-guinolizine-10-carboxylic acid methyl ester], the pIC50 on human recombinant PDE5 is 7.10.
The same measure, in the same setting: as for `O=C1OCC(=O)N2[C@H](c3ccc4c(c3)OCO4)c3[nH]c4ccccc4c3C[C@H]12` [Example 7, (6R,11aS)-10-Benzo[1,3]dioxol-5-yl-5,5a,10,11-tetrahydro-7-oxa-9a,11-diazabenzo[b]fluorene-6.9-dione], the figure is 7.30.
`O=C1CC(=O)N2CCc3c([nH]c4ccccc34)C2C1` (stereo not drawn) [Example 8, 6,7,12,12b-Tetrahydro-1H-indolo[2,3-a]-quinolizine-2,4-dione]: on PDE5 (bovine aorta), the negative logarithm of the IC50 (pIC50) is 6.60.
Consider `COc1cc2c(cc1O)CN1CCc3c([nH]c4ccccc34)C1C2` (stereo not drawn) [Example 15, 2-Methoxy-5,7,8,13,13b,14-hexahydroindolo-[2′,3′:3,4]pyrido[1,2-b]isoquinolin-3-ol], for which the negative logarithm of the IC50 (pIC50) against PDE5 (bovine aorta) is 6.52.
`O=C1Nc2ccccc2C2c3[nH]c4ccccc4c3CCN12` (stereo not drawn) [Example 16, 7,8,13,13b-Tetrahydro-5H-5,6a,13-triazaindeno-[1,2-c]phenanthren-6-one] gave a negative-log IC50 (pIC50) against PDE5 (bovine aorta) of 6.05.
Same read-out and setting: as for `Cn1c2ccccc2c2c(=O)n3c(cc21)-c1[nH]c2ccccc2c1CC3` [Example 18], the figure is 7.15.
For the molecule `CC1=CCC(/C=C/C(=O)N2CCc3c([nH]c4ccccc34)C2c2ccc3c(c2)OCO3)CC1` (stereo not drawn) [Example 20], the pIC50 at human recombinant PDE5 was 6.74.
Still for that read-out and setting: the value for `Cc1cccc2c3c([nH]c12)C(c1ccc2c(c1)OCO2)N(C(=O)/C=C/c1ccc(C(=O)O)cc1)CC3` (stereo not drawn) [Example 21] was 8.52.
On the same count and under the same terms, the value for `O=C(/C=C/c1ccccc1)N1CCc2c([nH]c3cc(Br)ccc23)C1c1ccc2c(c1)OCO2` (stereo not drawn) [Example 22] was 7.59; that for `O=C(/C=C/c1ccccc1)N1CCc2c([nH]c3cc(-c4ccccc4)ccc23)C1c1ccc2c(c1)OCO2` (stereo not drawn) [Example 23] was 6.16.
